In the data set the test system is A549 cells. Briefly: Growth inhibition of siRNA-transfected A549 cells, SYBR Green I DNA content. In kind it is cell-based, human. As to conditions: 10 nM siRNA; for Growth Inhibition in A549 cells / Growth Inhibition in A549 cells by 10 nM siRNA: DNA content 96 hours after transfection; for Growth Inhibition in A549 cells by 10 nM siRNA: transporter gene targets. In outline:
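A549 cells reverse-transfected with 10 nM Stealth siRNAs via Lipofectamine RNAiMAX, seeded at 5×10^3 cells/cm^2 in RPMI 1640/10% FCS; non-specific siRNA control. DNA content read 96 h post-transfection by SYBR Green I fluorescence (ex 485/em 535 nm) after freeze-thaw and Triton X-100 lysis; mean of three wells.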

In the case of “SEQ ID NO: 4860: siRNA targeting SLC25A5 (ANT2) (chain 1 ATGCCAGATTCCCTGCAAAGTAGCG; chain 2 AUGCCAGAUUCCCUGCAAAGUAGCG; Both strands are one antisense strand in DNA/RNA notation, chemistry not given here, further chemistry not given here; one strand in two spellings)”, the “Growth Inhibition in A549 cells” value is given as “+ (inhibits by at least 50%)”.
Take “SEQ ID NO: 4836: siRNA targeting DHFR (chain 1 AATATCTGAATTCATTCCTGAGCGG; chain 2 AAUAUCUGAAUUCAUUCCUGAGCGG; chemistry not given here; one strand in two spellings)”: the “Growth Inhibition in A549 cells” value is recorded as “+ (inhibits by at least 50%)”.
As to “SEQ ID NO: 4992: siRNA targeting TK2 (chain 1 GGGATCGAATATTAACTCCAGAGAA; chain 2 GGGAUCGAAUAUUAACUCCAGAGAA; chemistry not given here; one strand in two spellings)”, the “Growth Inhibition in A549 cells” value is “− (no growth inhibition with any siRNA)”.
For “SEQ ID NO: 4951: siRNA targeting ATP6V1A (chain 1 AAATGGCTCCCATAATGCCAGGACC; chain 2 AAAUGGCUCCCAUAAUGCCAGGACC; chemistry not given here; one strand in two spellings)”, the “Growth Inhibition in A549 cells by 10 nM siRNA” value is given as “+ (inhibits by at least 50%)”.
As to “SEQ ID NO: 4806: siRNA targeting ARNT (HIF-1β) (chain 1 ATCAGTGGATGTGTTGCCAGTTCCC; chain 2 AUCAGUGGAUGUGUUGCCAGUUCCC; chemistry not given here; one strand in two spellings)”, the “Growth Inhibition in A549 cells” value is “− (no growth inhibition with any siRNA)”.
For the substance “SEQ ID NO: 4993: siRNA targeting TK2 (chain 1 GGAAGACGACATGCCTGGAATTCTT; chain 2 GGAAGACGACAUGCCUGGAAUUCUU; chemistry not given here; one strand in two spellings)”, the “Growth Inhibition in A549 cells” value is “− (no growth inhibition with any siRNA)”.
Still for that read-out and setting: then “SEQ ID NO: 4845: siRNA targeting FLAD1 (chain 1 TTTGAGTGGAACTGAACAGCTGGGT; chain 2 UUUGAGUGGAACUGAACAGCUGGGU; chemistry not given here; one strand in two spellings)”, with “+ (inhibits by at least 50%)”; and “SEQ ID NO: 4821: siRNA targeting PRPS1 (chain 1 AATTGTCATTGATTTCGCCACAACC; chain 2 AAUUGUCAUUGAUUUCGCCACAACC; chemistry not given here; one strand in two spellings)”, with “− (no growth inhibition with any siRNA)”.
As to “SEQ ID NO: 4979: siRNA targeting ABCB1 (MDR1) (chain 1 TAATTATTCCTGTCCCAAGATTTGC; chain 2 UAAUUAUUCCUGUCCCAAGAUUUGC; chemistry not given here; one strand in two spellings)”, the “Growth Inhibition in A549 cells by 10 nM siRNA” value is “− (no growth inhibition)”.
Take “SEQ ID NO: 4837: siRNA targeting DHFR (chain 1 TTTCAAAGTCTTGCATGATCCTTGT; chain 2 UUUCAAAGUCUUGCAUGAUCCUUGU; chemistry not given here; one strand in two spellings)”: the “Growth Inhibition in A549 cells” value is given as “− (no growth inhibition with any siRNA)”.
Consider “SEQ ID NO: 4863: siRNA targeting SLC25A6 (ANT3) (chain 1 AAAGTACCTCCAGAACTGCGTGTGC; chain 2 AAAGUACCUCCAGAACUGCGUGUGC; Both strands are one antisense strand in DNA/RNA notation, chemistry not given here, further chemistry not given here; one strand in two spellings)”, for which the “Growth Inhibition in A549 cells” value is “++ (inhibits by at least 75%)”.
As for “SEQ ID NO: 4829: siRNA targeting CAD (chain 1 AACTGTGTCAATCTGTTTCACTGCT; chain 2 AACUGUGUCAAUCUGUUUCACUGCU; chemistry not given here; one strand in two spellings)”, the “Growth Inhibition in A549 cells” value is recorded as “+ (inhibits by at least 50%)”.
On to “SEQ ID NO: 4857: siRNA targeting ACLY (chain 1 ATAGTTTGCCAGCTCGTTGACACCC; chain 2 AUAGUUUGCCAGCUCGUUGACACCC; Both strands are one antisense strand in DNA/RNA notation, chemistry not given here, further chemistry not given here; one strand in two spellings)”, for which the “Growth Inhibition in A549 cells” value is “+ (inhibits by at least 50%)”.
The same measure, in the same setting: in the case of “SEQ ID NO: 4858: siRNA targeting ACLY (chain 1 TTCTTGATCAGCTTTCTCGTGAGGG; chain 2 UUCUUGAUCAGCUUUCUCGUGAGGG; Both strands are one antisense strand in DNA/RNA notation, chemistry not given here, further chemistry not given here; one strand in two spellings)” it was “− (no growth inhibition with any siRNA)”.
As to “SEQ ID NO: 4866: siRNA targeting UQCRC2 (chain 1 ACACCAAGTCCAATCAAAGCCATTC; chain 2 ACACCAAGUCCAAUCAAAGCCAUUC; Both strands are one antisense strand in DNA/RNA notation, chemistry not given here, further chemistry not given here; one strand in two spellings)”, the “Growth Inhibition in A549 cells” value is recorded as “− (no growth inhibition with any siRNA)”.
“SEQ ID NO: 4994: siRNA targeting TK2 (chain 1 CCTGAGACTTGTTACCAGAGGTTAA; chain 2 CCUGAGACUUGUUACCAGAGGUUAA; chemistry not given here; one strand in two spellings)”: the “Growth Inhibition in A549 cells” value was “− (no growth inhibition with any siRNA)”.
The same measure, in the same setting: in the case of “SEQ ID NO: 4876: siRNA targeting CTPS (chain 1 ATAAAGGGCATGCTTTCTATGTCCC; chain 2 AUAAAGGGCAUGCUUUCUAUGUCCC; Both strands are one antisense strand in DNA/RNA notation, chemistry not given here, further chemistry not given here; one strand in two spellings)” it was “− (no growth inhibition with any siRNA)”; in that of “SEQ ID NO: 4998: siRNA targeting UMPS (chain 1 GAGTTGTGAAAGGCCTGCAAGAAGT; chain 2 GAGUUGUGAAAGGCCUGCAAGAAGU; chemistry not given here; one strand in two spellings)”, “− (no growth inhibition with any siRNA)”.
On the same count and under the same terms, in the case of “SEQ ID NO: 4856: siRNA targeting FASN (chain 1 CTTCGATGTATTCAAATGACTCAGG; chain 2 CUUCGAUGUAUUCAAAUGACUCAGG; Both strands are one antisense strand in DNA/RNA notation, chemistry not given here, further chemistry not given here; one strand in two spellings)” it was “− (no growth inhibition with any siRNA)”; in that of “SEQ ID NO: 4989: siRNA targeting TK1 (chain 1 GCGTGGCTGTCATAGGCATCGACGA; chain 2 GCGUGGCUGUCAUAGGCAUCGACGA; chemistry not given here; one strand in two spellings)”, “− (no growth inhibition with any siRNA)”; in that of “SEQ ID NO: 4874: siRNA targeting RRM2B (chain 1 TATCTGTGGTTTCTGCCATAACTGC; chain 2 UAUCUGUGGUUUCUGCCAUAACUGC; Both strands are one antisense strand in DNA/RNA notation, chemistry not given here, further chemistry not given here; one strand in two spellings)”, “− (no growth inhibition with any siRNA)”.
Turning to “SEQ ID NO: 4873: siRNA targeting RRM2B (chain 1 TTTACTAAGTATTGGAACATCAGGC; chain 2 UUUACUAAGUAUUGGAACAUCAGGC; Both strands are one antisense strand in DNA/RNA notation, chemistry not given here, further chemistry not given here; one strand in two spellings)”, the “Growth Inhibition in A549 cells” value is listed as “− (no growth inhibition with any siRNA)”. Besides, the “growth inhibition, A549” value (up to 120 hours post-transfection (FIG. 8)) was “No inhibition of growth”.
For “SEQ ID NO: 4825: siRNA targeting CPS1 (chain 1 AATACCTTCACCAAAGCAAGCCACC; chain 2 AAUACCUUCACCAAAGCAAGCCACC; chemistry not given here; one strand in two spellings)”, the “Growth Inhibition in A549 cells” value is “− (no growth inhibition with any siRNA)”.
On the same count and under the same terms, then “SEQ ID NO: 4815: siRNA targeting LDHA/5 (chain 1 ATTAAGACGGCTTTCTCCCTCTTGC; chain 2 AUUAAGACGGCUUUCUCCCUCUUGC; chemistry not given here; one strand in two spellings)”, with “− (no growth inhibition with any siRNA)”; and “SEQ ID NO: 4814: siRNA targeting HK-II (chain 1 TTAACAATGATGCTGTCGTCACAGG; chain 2 UUAACAAUGAUGCUGUCGUCACAGG; chemistry not given here; one strand in two spellings)”, with “− (no growth inhibition with any siRNA)”.
The same measure, in the same setting: in the case of “SEQ ID NO: 4996: siRNA targeting DGUOK (chain 1 CCTGCACTGCCCAAAGTCTTGGAAA; chain 2 CCUGCACUGCCCAAAGUCUUGGAAA; chemistry not given here; one strand in two spellings)” it was “− (no growth inhibition with any siRNA)”.

Values taken from patent US20080145313A1, “Compositions and Methods for the Treatment and Prevention of Neoplastic Disorders” (Genesis Research & Development Corporation Limited, priority 2006, published 2008).
